Melting point data for 26 compounds are collected here from US6479506B1 (dated 2002).

The structures appear in SMILES notation.

`COC(=O)c1cc2nnn(-c3ccccc3)c2nc1OCc1ncnn1C` registered a melting point of 188 to 190 °C.

For the compound `Cn1ncnc1COc1nc2c(cc1C(C)(C)C)nnn2-c1ccccc1F`, the melting point lay within 115 to 117 °C.

Take `CCn1ncnc1COc1nc2c(nnn2-c2ccccc2)c2ccccc12`: the melting point lay in the range of 192 to 195 °C.

`Cn1ncnc1COc1nc2c(cc1-c1ccc(F)cc1)nnn2-c1ccccc1F` registered a melting point of 142 to 145 °C.

The compound `Cn1ncnc1COc1nc2c(cc1-c1ccsc1)nnn2-c1ccccc1F` came in with a melting point of 133 to 135 °C.

`CCn1ncnc1COc1nc2c(cc1C(C)(C)C)nnn2-c1cc(F)ccc1F` showed a melting point of 148 to 150 °C.

Turning to `Cn1ncnc1COc1nc2c(cc1C1CCC1)nnn2-c1c(F)cccc1F` (hydrate or solvate), the melting point fell in the range of 140 to 144 °C.

Turning to `c1ccc(-n2nnc3c4ccccc4c(OCc4ccccn4)nc32)cc1`, the melting point lay within 147 to 150 °C.

Consider `CCCn1ncnc1COc1nc2c(cc1C(C)(C)C)nnn2-c1ccccc1F`, for which the melting point was 127 to 129 °C.

In the case of `Cn1cnc(COc2nc3c(cc2C(C)(C)C)nnn3-c2ccccc2)n1`, the melting point lay in the range of 179 to 180 °C.

Compound `CCCn1ncnc1COc1nc2c(nnn2-c2ccccc2)c2ccccc12` returned a melting point of 154 to 156 °C.

The compound `Cn1ncnc1COc1nc2c(cc1C(C)(C)C)nnn2-c1ccccc1` showed a melting point of 165 to 167 °C.

In turn, `Cn1ncnc1COc1nc2c(cc1-c1cccc(F)c1)nnn2-c1c(F)cccc1F` gave a melting point of 137 to 140 °C.

On to `Cn1ncnc1COc1nc2c(cc1C1CCC1)nnn2-c1ccccc1F`, for which the melting point fell in the range of 120 to 122 °C.

For the compound `Cn1ncnc1COc1nc2c(cc1-c1ccoc1)nnn2-c1c(F)cccc1F`, the melting point was 166 to 169 °C.

In turn, `Cn1ncnc1COc1nc2c(cc1CC(C)(C)C)nnn2-c1ccccc1F` had a melting point of 130 to 133 °C.

Turning to `Cn1ncnc1COc1nc2c(cc1C(C)(C)C)nnn2-c1c(F)cccc1F`, the melting point lay in the range of 105 to 108 °C.

Compound `Cn1ncnc1COc1nc2c(cc1-c1ccco1)nnn2-c1ccccc1F` had a melting point of 170 to 173 °C.

For `Cn1cnc(COc2nc3c(cc2C(C)(C)C)nnn3-c2ccccc2F)n1`, the melting point was 127 to 129 °C.

In the case of `Cn1ncnc1COc1nc2c(nnn2-c2ccccc2)c2ccccc12`, the melting point lay within 188 to 190 °C.

Regarding `Cn1cnc(COc2nc3c(cc2-c2cccs2)nnn3-c2ccccc2F)n1`, the melting point is 179 to 181 °C.

`Cn1cnc(COc2nc3c(nnn3-c3ccccc3)c3ccccc23)n1` showed a melting point of 189 to 190 °C.

`Cn1ncnc1COc1nc2c(cc1-c1ccccc1)nnn2-c1ccccc1F` showed a melting point of 144 to 146 °C.

As for `COc1cccc(F)c1-n1nnc2cc(C(C)(C)C)c(OCc3ncnn3C)nc21`, the melting point was in the range of 116 to 118 °C.

Consider `Cn1ncnc1COc1nc2c(cc1-c1ccoc1)nnn2-c1ccccc1F`, for which the melting point fell in the range of 145 to 146 °C.

On to `Cn1cnc(COc2nc3c(cc2-c2ccsc2)nnn3-c2ccccc2F)n1`, for which the melting point is 174 to 176 °C.
